Data as given in patent US12622448B2 (Givaudan SA, priority 2019, dated 2026).

Columns and labels:
[1] = Expert taster comparison with and without Amadori compound, almond milk; settings: 2 ppb; base: commercially available sweetened vanilla almond milk; expert tasters (5-7)
Description: (§1) The following formulations were prepared with and without Amadori compound and tasted by expert tasters (5-7) and compared. The Amadori compound was dosed in the consumable with no additional heating required.

[2] = Expert taster comparison with and without Amadori compound, vanilla flavored milk; settings: expert tasters (5-7)
Description: as §1

[3] = Expert taster comparison with and without Amadori compound, cream filling; settings: 10 ppb; base: 66.4% sucrose, 32% palm oil, 0.2% salt, 0.4% vanilla extract, 1% water; expert tasters (5-7)
Description: as §1

[4] = Expert taster comparison with and without Amadori compound, chocolate flavored milk; settings: 5% sugar, 0.05% carrageenan, expert tasters (5-7)
Description: as §1

[5] = Expert taster comparison with and without Amadori compound, plain low fat yoghurt; settings: base: 1.5% fat, 5% sugar, expert tasters (5-7)
Description: as §1

[6] = Expert taster comparison with and without Amadori compound, cheese sauce; settings: 10 ppm, expert tasters (5-7)
Description: as §1
Base: 33.46% Maltodextrin 10DE; 29.00% Starch Ultrasphere 2000; 10.00% Cheddar Cheese (white); 9.00% non-fat milk powder; 6.20% Whey; 5.00% canola shortening powder; 4.25% salt, 40 mesh; 0.35% yeast extract powder; 0.10% citric acid; 0.10% lactic acid; 2.54% cheese flavor.

[7] = Expert taster comparison with and without Amadori compound, strawberry flavored yoghurt; settings: base: 1.7% fat, 4% sugar, strawberry flavor 0.1%, expert tasters (5-7)
Description: as §1
Strawberry Flavored Yoghurt

[8] = Expert taster comparison with and without Amadori compound, ice cream; settings: 10 ppb; base: 14.31% heavy whipping cream, 77.60% whole milk, 8% sucrose, 0.009% vanillin; expert tasters (5-7)
Description: as §1

O=C(O)C1CCCN1CC1(O)OCC(O)C(O)C1O (centres unmarked)
taste/mouthfeel compared with base [1]: more creamy, stronger vanilla flavor, more body, more creamy mouthfeel; sweeter and more salty
taste/mouthfeel compared with base ([2]; 0.1 ppb, base: 2% milk fat, 4% sugar, 0.2% vanilla extract): sweeter linger, more powdery, more fatty body, full and creamy, more dairy impact, creamier mouthfeel, slight waxy mouthfeel
taste/mouthfeel compared with base ([2]; 1 ppb, base: 2% milk fat, 4% sugar, 0.2% vanilla extract): sweeter, increase fullness, creamier mouthfeel, more dairy, slight waxy mouthfeel
taste/mouthfeel compared with base ([2]; 20 ppm, base: half full milk, 5% sugar, 0.1% vanillin): slightly fuller, richer than base, fuller like fat, sweeter
taste/mouthfeel compared with base ([2]; δ ppm, base: 2% fat milk, 4% sugar, 0.15% vanilla flavor): sweeter, more rich creamy, slightly sweeter, juicy, slight metallic and mouth drying
taste/mouthfeel compared with base [3]: more fatty and creamy, sweeter and more salty, more buttery profile
taste/mouthfeel compared with base ([4]; 0.1 ppb, base: 2% milk fat, 2% cocoa powder): creamy, full, richer chocolate, slight waxy, more cocoa impact
taste/mouthfeel compared with base ([4]; 1 ppb, base: 2% milk fat, 2% cocoa powder): more chocolate linger, more chocolate, more complex, full mouthfeel, sweeter impression, thicker, waxy, slight tingle
taste/mouthfeel compared with base ([4]; 10 ppm, base: 2% fat milk, 20/cocoa powder): more rich, more body, more real chocolate profile, slight increase in bitterness
taste/mouthfeel compared with base ([5]; 5 ppm): less sour, sweeter, creamy
taste/mouthfeel compared with base ([5]; 10 ppm): increase upfront sweet, less sour
taste/mouthfeel compared with base ([5]; 25 ppm): metallic linger, increase overall and upfront sweet
taste/mouthfeel compared with base [6]: denser, cheesier, smooth, saltier, creamier mouthfeel, fresher dairy note, rich, slight metallic and astringent
taste/mouthfeel compared with base ([7]; 1 ppb): hardly any effect noticed
taste/mouthfeel compared with base ([7]; 10 ppb): sweeter, more creamy, richer mouthfeel, more fruity
taste/mouthfeel compared with base [8]: more creamy, sweeter, slightly more body and mouth round effect, slightly more milk fat taste

O=C(O)[C@H](Cc1c[nH]cn1)NCC(=O)[C@@H](O)[C@H](O)[C@H](O)CO [Fru-His, N-(1-deoxy-D-fructose-1-yl)-L-histidine]
taste/mouthfeel compared with base [6]: more cheesy, slight acidic, aged, meaty, tingling, chalky, increased mouthfeel, creamier

CC[C@H](C)[C@H](NCC(=O)[C@@H](O)[C@H](O)[C@H](O)CO)C(=O)O [Fru-Ileu, N-(1-deoxy-D-fructose-1-yl)-L-isoleucine]
taste/mouthfeel compared with base [6]: slight acidic, bitter, creamier, increased saltiness

CSCC[C@H](NCC(=O)[C@@H](O)[C@H](O)[C@H](O)CO)C(=O)O [Fru-Met, N-(1-deoxy-D-fructose-1-yl)-L-methionine]
taste/mouthfeel compared with base [6]: more rich, cheesy, umami, astringent, sharper cheese notes, salty

O=C(O)C(CO)NCC1(O)OCC(O)C(O)C1O (centres unmarked) [Fru-Ser]
taste/mouthfeel compared with base [6]: cheesy, creamy, rich, tingling, metallic, thick, smooth
